Bridge positions count the residues as written; N and C are the ends. Square brackets hold non-standard residues; d marks the D form. Peptide text beside a SMILES is read from it. * marks the point of attachment. hPhe(3-Cl-4-CF3) = N[C@@H](CCc1ccc(C(F)(F)F)c(Cl)c1)C(=O)O; NEtPhe(4-Cl) = CCN[C@@H](Cc1ccc(Cl)cc1)C(=O)O; NMePhe(4-Me) = CN[C@@H](Cc1ccc(C)cc1)C(=O)O; NMePhe(2-Cl) = CN[C@@H](Cc1ccccc1Cl)C(=O)O; Phe(3-I) = N[C@@H](Cc1cccc(I)c1)C(=O)O; NMe3Pal = CN[C@@H](Cc1cccnc1)C(=O)O; NMeCha = CN[C@@H](CC1CCCCC1)C(=O)O; Ala(cPr) = N[C@@H](CC1CC1)C(=O)O; NMeChg = CN[C@H](C(=O)O)C1CCCCC1; NMeT = CN[C@H](C(=O)O)[C@@H](C)O; hPhe = N[C@@H](CCc1ccccc1)C(=O)O; N(CH2CH2)2CF2 = FC1(F)CCN(*)CC1; NMeD = CN[C@@H](CC(=O)O)C(=O)O; NMeL = CN[C@@H](CC(C)C)C(=O)O; Cba = N[C@@H](CC1CCC1)C(=O)O; NMeV = CN[C@H](C(=O)O)C(C)C; NMeA = CN[C@@H](C)C(=O)O; NMeAib = CNC(C)(C)C(=O)O; Nle = CCCC[C@H](N)C(=O)O; Piperidide = C1CCN(*)CC1; Pyrrolidide = C1CCN(*)C1; Ac5c = NC1(C(=O)O)CCCC1; Aze = O=C(O)[C@@H]1CCN1; Aib = CC(C)(N)C(=O)O; Sar = CNCC(=O)O
test system: Human pancreatic cancer cell line AsPC-1 (G12D mutation Kras); experiment: AsPC-1 cell growth inhibition (AsPC-1 CGI); format: cell-based; details: read-out: AsPC-1 cell growth inhibition, 50% growth inhibitory concentration (IC50 value); 96 hours, CellTiter-Glo, values classified in ranges
Description: Test compounds were serially dilated with dimethyl sulfoxide, and 200 nL was then dispensed to a U-bottom 96-well plate using Labcyte Echo. […] The cell suspension was dispensed to a. plate containing a test compound at 100 μL per well and incubated at 37° C. in a 5% carbon dioxide gas incubator. 96 hours later, 80 μL of CellTiter-Glo (Promega) was added to each well and fluorescence was measured.

SMILES | IC50 [nM]
CC(C)C[C@H]1C(=O)N[C@@H](CC2CC2)C(=O)N(C)CC(=O)N(C)CC(=O)N(C)[C@@H](CC2CCCCC2)C(=O)N(C)CC(=O)N[C@@H](CCc2ccc(C(F)(F)F)c(Cl)c2)C(=O)N2CCC[C@H]2C(=O)NC2(CCCC2)C(=O)N(C)[C@@H](C(C)C)C(=O)N(C)[C@H](C(=O)N2CCCCC2)CC(=O)N1C [Compound 421] ([NMeL][Ala(cPr)][Sar][Sar][NMeCha][Sar][hPhe(3-Cl-4-CF3)]P[Ac5c][NMeV][NMeD]-Piperidide; lactam N-11) | > 500
CCCC[C@@H]1NC(=O)[C@H](Cc2cccc(I)c2)NC(=O)CN(C)C(=O)[C@H](Cc2ccc(Cl)cc2)N(CC)C(=O)CN(C)C(=O)CN(C)C(=O)[C@H]([C@@H](C)CC)NC(=O)[C@H](CC(C)C)N(C)C(=O)C[C@@H](C(=O)N2CCCCC2)N(C)C(=O)[C@H](CC(C)C)NC(=O)C(C)(C)N(C)C1=O [Compound 423] ([NMeL]I[Sar][Sar][NEtPhe(4-Cl)][Sar][Phe(3-I)][Nle][NMeAib]L[NMeD]-Piperidide; lactam N-11) | > 500
CC[C@H](C)[C@@H]1NC(=O)[C@H](C)N(C)C(=O)C[C@@H](C(=O)N2CCCC2)N(C)C(=O)[C@H](C(C)C)N(C)C(=O)C(C)(C)NC(=O)[C@H](Cc2ccccc2Cl)N(C)C(=O)[C@H](CCc2ccc(C(F)(F)F)c(Cl)c2)NC(=O)CN(C)C(=O)[C@H](CC2CCCCC2)N(C)C(=O)CN(C)C(=O)CN(C)C1=O [Compound 426] ([NMeA]I[Sar][Sar][NMeCha][Sar][hPhe(3-Cl-4-CF3)][NMePhe(2-Cl)][Aib][NMeV][NMeD]-Pyrrolidide; lactam N-11) | > 500
CC[C@H](C)[C@@H]1NC(=O)[C@H](CC(C)C)N(C)C(=O)C[C@@H](C(=O)N2CCCCC2)N(C)C(=O)[C@H](C2CCCCC2)N(C)C(=O)C2(CCCC2)NC(=O)[C@@H]2CCCN2C(=O)[C@H](CCc2ccc(C(F)(F)F)c(Cl)c2)NC(=O)CN(C)C(=O)[C@H]([C@@H](C)O)N(C)C(=O)CN(C)C(=O)CN(C)C1=O [Compound 427] ([NMeL]I[Sar][Sar][NMeT][Sar][hPhe(3-Cl-4-CF3)]P[Ac5c][NMeChg][NMeD]-Piperidide; lactam N-11) | > 500
CC[C@H](C)[C@@H]1NC(=O)[C@H](C)N(C)C(=O)C[C@@H](C(=O)N2CCCCC2)N(C)C(=O)[C@H](C2CCCCC2)N(C)C(=O)C2(CCCC2)NC(=O)[C@H](Cc2cccnc2)N(C)C(=O)[C@H](CCc2ccc(C(F)(F)F)c(Cl)c2)NC(=O)CN(C)C(=O)[C@H](CC2CCCCC2)N(C)C(=O)[C@@H]2CCCN2C(=O)CN(C)C1=O [Compound 433] ([NMeA]I[Sar]P[NMeCha][Sar][hPhe(3-Cl-4-CF3)][NMe3Pal][Ac5c][NMeChg][NMeD]-Piperidide; lactam N-11) | > 500
CC[C@H](C)[C@@H]1NC(=O)[C@H](CC(C)C)N(C)C(=O)C[C@@H](C(=O)N2CCCCC2)N(C)C(=O)[C@H](CC(C)C)NC(=O)C(C)(C)N(C)C(=O)[C@H](CCc2ccccc2)NC(=O)[C@H](Cc2cccc(I)c2)NC(=O)CN(C)C(=O)[C@H](Cc2ccc(C)cc2)N(C)C(=O)[C@@H]2CCN2C(=O)CN(C)C1=O [Compound 442] ([NMeL]I[Sar][Aze][NMePhe(4-Me)][Sar][Phe(3-I)][hPhe][NMeAib]L[NMeD]-Piperidide; lactam N-11) | > 500
CC[C@H](C)[C@@H]1NC(=O)[C@H](CC(C)C)N(C)C(=O)C[C@@H](C(=O)N2CCCCC2)N(C)C(=O)[C@H](C(C)C)N(C)C(=O)[C@H](C)NC(=O)[C@H](CC(=O)N2CCC(F)(F)CC2)N(C)C(=O)[C@H](CCc2ccc(C(F)(F)F)c(Cl)c2)NC(=O)CN(C)C(=O)[C@H](CC2CCCCC2)N(C)C(=O)CN(C)C(=O)CN(C)C1=O [Compound 444] ([NMeL]I[Sar][Sar][NMeCha][Sar][hPhe(3-Cl-4-CF3)][NMeD](N(CH2CH2)2CF2)A[NMeV][NMeD]-Piperidide; lactam N-11) | > 500
CC[C@H](C)[C@@H]1NC(=O)[C@H](C)N(C)C(=O)C[C@@H](C(=O)N2CCCCC2)N(C)C(=O)[C@H](C(C)C)N(C)C(=O)C2(CCCC2)NC(=O)[C@@H]2CCCN2C(=O)[C@H](CCc2ccc(C(F)(F)F)c(Cl)c2)NC(=O)[C@H]2CCCN2C(=O)[C@H](CC2CCCCC2)N(C)C(=O)[C@@H]2CCN2C(=O)CN(C)C1=O [Compound 447] ([NMeA]I[Sar][Aze][NMeCha][dP][hPhe(3-Cl-4-CF3)]P[Ac5c][NMeV][NMeD]-Piperidide; lactam N-11) | > 500
CC(C)C[C@H]1C(=O)N[C@@H](CC2CCC2)C(=O)N(C)CC(=O)N(C)CC(=O)N(C)[C@@H](CC2CCCCC2)C(=O)N(C)CC(=O)N[C@@H](CCc2ccc(C(F)(F)F)c(Cl)c2)C(=O)N2CCC[C@H]2C(=O)NC2(CCCC2)C(=O)N(C)[C@@H](C(C)C)C(=O)N(C)[C@H](C(=O)N2CCCCC2)CC(=O)N1C [Compound 451] ([NMeL][Cba][Sar][Sar][NMeCha][Sar][hPhe(3-Cl-4-CF3)]P[Ac5c][NMeV][NMeD]-Piperidide; lactam N-11) | > 500

From patent publication US20240148821A1, “PHARMACEUTICAL USE OF CYCLIC PEPTIDE COMPOUND” (CHUGAI SEIYAKU KABUSHIKI KAISHA, priority 2021, published 2024)
